Experimental data published in patent US10189803B2, “Synthesis of therapeutic and diagnostic drugs centered on regioselective and stereoselective ring opening of aziridinium ions” (ILLINOIS INSTITUTE OF TECHNOLOGY, priority 2008, dated 2019).

System: HT29 cancer cells
Assay: Fluorescence imaging of cellular uptake in live HT29 cancer cells
Assay type: cell-based, Human
Settings: 50 μM, 0.5 h incubation
Text: In order to visualize cellular uptake using fluorescence imaging, C-NE3TA was conjugated with an organic fluorescent moiety, NBD to produce C-NE3TA-NBD (FIG. 40). Thus, the starting material 15 was reacted with NBD-Cl to provide the fluorescent conjugate 16. t-Butyl groups in Compound 16 were removed by treating 4M HCl in 1,4-dioxane. C-NE3TA has the respective excitation and emission wavelength of 446 nm and 512 nm. Fluorescence and phase contrast images of control HT29 cells or HT29 cells incubated with C-NE3TA-NBD (50 μM) were obtained using a confocal microscope with a band-pass filter set at 436/20 nm (excitation) and 535/30 nm (emission). […] It was noted that the control HT29 colon cancer cells also emit auto-fluorescence at the wavelength of excitation. While polyaminocarboxylate NE3TA is too hydrophilic to enter the cancer cells, C-NE3TA-NBD containing liphophilic moieties, both benzyl and NBD group is proposed to penetrate into the cells resulting in the punctuate present in the cancer cells.
Fluorescence Imaging of live cancer cells. HT29 cancer cells were plated in glass cover slips which placed in 6-well plates, and were incubated with growth media in a humidified atmosphere with 5% CO2 at 37° C. overnight. Control cells or cells containing C-NE3TA-NBD (50 μM, H2O) were incubated with media for 0.5 h under 5% CO2 at 37° C. […]
Fluorescence imaging of live cancer cells. […]

O=C(O)CNC(Cc1ccc(Nc2ccc([N+](=O)[O-])c3nonc23)cc1)CN1CCN(CC(=O)O)CCN(CC(=O)O)CC1 (stereo not shown) [C-NE3TA-NBD, (4-Carboxymethyl-7-{2-(carboxymethyl-amino)-3-[4-(7-nitro-benzo[1,2,5]oxadiazol-4-ylamino)-phenyl]-propyl}-[1,4,7]triazonan-1-yl)-acetic acid]
cellular uptake by fluorescence imaging (in words): does accumulate in the HT29 cancer cells
